According to patent publication US20050261290A1, “Novel compounds of proline and morpholine derivatives” (priority 2004, published 2005):

Target: human 11b-hsd-1 (Homo sapiens, UniProt P28845)
Assay: Inhibition constant Ki of human 11b-hsd-1 (3H-cortisone to 3H-cortisol conversion, HPLC)
Format: biochemical
Details: for inhibition at 0.1 µM: 0.1 μM compound; for Ki: apparent Ki, read-out: Ki app
Method: In each well, varying amounts of compounds are incubated with a fixed amount of 11b-hsd-1 (4 nM) and NADPH (500 μM) for 30 to 40 min at room temperature in the assay buffer. The enzyme concentration was determined by titration using reversible tight-binding inhibitors. […] The area of 3H-cortisol is calculated and plotted versus time to determine a linear velocity. […] Where vi, and vo are the rates of cortisol formation in the presence and in the absence of inhibitor, respectively, I is the inhibitor concentration and E is the 11 b-hsd-1 concentration in the assay buffer. […] NADPH, Glucose-6-Phosphate (G6P), and Glucose-6-Phosphate dehydrogenase was purchased from Sigma.

human 11b-hsd-1, sequence (P28845 whole entry): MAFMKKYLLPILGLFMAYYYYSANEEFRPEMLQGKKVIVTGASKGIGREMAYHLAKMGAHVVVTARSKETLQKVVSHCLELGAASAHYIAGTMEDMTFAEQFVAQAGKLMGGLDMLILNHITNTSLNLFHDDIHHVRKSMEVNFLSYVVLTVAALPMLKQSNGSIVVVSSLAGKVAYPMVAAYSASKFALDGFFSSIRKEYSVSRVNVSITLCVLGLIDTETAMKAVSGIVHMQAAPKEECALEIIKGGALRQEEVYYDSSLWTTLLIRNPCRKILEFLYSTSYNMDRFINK

SMILES	inhibition at 0.1 µM	Ki
CN(Cc1ccccc1)C(=O)[C@H]1COCCN1Cc1ccccc1 [Example 272]	71.7%	1 nM
N#Cc1cccc(CN2CCOC[C@@H]2C(=O)NC2C3CC4CC(C3)CC2C4)c1 (some centres unmarked) [Example 275]	100%	1.5 nM
N#Cc1ccc(CN2CCC[C@@H]2C(=O)N[C@@H]2CCc3ccccc32)cc1 [Example 285]	100%	7.82 nM
CCCN1CCC[C@@H]1C(=O)N[C@@H]1CCc2ccccc21 [Example 286]	91.4%	5.8 nM
CC(C)CN1CCC[C@@H]1C(=O)N[C@H]1c2ccccc2C[C@H]1O [Example 288]	99.1%	5.51 nM
CC(C)CN1CCC[C@@H]1C(=O)NC(C)c1ccc(F)cc1 (some centres unmarked) [Example 290]	96.2%	6.85 nM
CC(C)CN1CCC[C@@H]1C(=O)N[C@@H]1CCc2ccccc21 [Example 291]	100%	1 nM
C[C@@H](NC(=O)[C@H]1CCCN1CC1CCCC1)c1ccccc1 [Example 292]	92.1%	9.59 nM
O=C(N[C@@H]1CCCc2ccccc21)[C@H]1CCCN1Cc1ccccc1 [Example 295]	100%	4.5 nM
CC(C)CN1CCC[C@@H]1C(=O)N[C@H](C)c1ccc(Cl)cc1 [Example 298]	100%	1.77 nM
O=C(N[C@H]1c2ccccc2C[C@H]1O)[C@H]1COCCN1Cc1ccccc1 [Example 301]	89.2%	11.1 nM
CN(C(=O)[C@H]1COCCN1Cc1ccccc1)C1CCCCC1 [Example 303]	50%	4.4 nM
O=C(N[C@@H]1CCc2ccccc21)[C@H]1COCCN1Cc1ccccc1 [Example 304]	59.4%	3.6 nM
N#Cc1ccc(CN2CCOC[C@@H]2C(=O)NC2CCCCC2)cc1 [Example 306]	100%	4.9 nM
C[C@@H](NC(=O)[C@H]1COCCN1CC1CCCC1)c1ccccc1 [Example 309]	86.1%	32 nM
O=C(N[C@@H]1CCCc2ccccc21)[C@H]1COCCN1Cc1ccccc1 [Example 313]	97%	4.89 nM
C[C@@H](NC(=O)[C@H]1COCCN1Cc1ccccc1)c1ccc(Cl)cc1 [Example 314]	94.8%	8.96 nM
CC(C)CN1CCOC[C@@H]1C(=O)N[C@@H]1CCCc2ccccc21 [Example 316]	91%	10.9 nM
CC(C)CN1CCOC[C@@H]1C(=O)N[C@H](C)c1ccc(Cl)cc1 [Example 317]	91.1%	8.72 nM
O=C(N[C@@H]1CCCc2ccccc21)[C@H]1COCCN1CC1CCCC1 [Example 318]	84.8%	13 nM
O=C(NC1C2CC3CC(C2)CC1C3)[C@@H]1C[C@H](Oc2cccc(F)c2)CN1 (some centres unmarked) [Example 319]	100%	1.7 nM
Cc1ccccc1O[C@@H]1CN[C@H](C(=O)NC2C3CC4CC(C3)CC2C4)C1 (some centres unmarked) [Example 320]	100%	5.5 nM
O=C(NCc1ccc(Cl)cc1)[C@H]1CCCN1Cc1ccc(Cl)cc1 [Example 325]	35.7%	–
O=C(NCc1c(F)cccc1F)[C@H]1COCCN1Cc1ccccc1 [Example 327]	68.9%	110 nM
CC(C)CN1CCC[C@@H]1C(=O)NCC1(O)CCCC1 [Example 330]	83.5%	30 nM
CC(C)CN1CCOC[C@@H]1C(=O)N(C)C1CCCCC1 [Example 333]	100%	4 nM
CCCN1CCOC[C@@H]1C(=O)NCC1CCCCC1 [Example 335]	100%	6.9 nM
CC(C)CN1CCOC[C@@H]1C(=O)NCC1CCCCC1 [Example 336]	100%	1 nM
CC(C)CN1C[C@H](O)C[C@@H]1C(=O)NCC1CCCCC1 [Example 337]	97.8%	13 nM
O=C(NC1C2CC3CC(C2)CC1C3)[C@@H]1C[C@H](Oc2ccc(Cl)cc2)CN1 (some centres unmarked) [Example 339]	97.7%	1 nM

More lines, in order of falling Ki, values ahead:

inhibition at 0.1 µM	Ki	SMILES
69.7%	110 nM	N#Cc1ccc(CN2CCC[C@@H]2C(=O)NCc2ccccc2)cc1 [Example 323]
69.2%	69 nM	O=C(NCc1ccc(F)cc1)[C@H]1CCCN1CCC(F)(F)F [Example 324]
69.4%	69 nM	Cc1ccc(CNC(=O)[C@H]2CCCN2CCC(F)(F)F)cc1 [Example 326]
76%	49.2 nM	CC(C)CN1CCOC[C@@H]1C(=O)NCc1ccccc1 [Example 278]
81.6%	49 nM	O=C(NCc1ccc(F)cc1F)[C@H]1COCCN1Cc1ccccc1 [Example 280]
84.9%	48 nM	CC(C)CN1CCOC[C@@H]1C(=O)NCc1ccc(F)cc1F [Example 281]
62.5%	45 nM	O=C(NCc1ccccc1)C1COCCN1CC1CCCCC1 (centres unmarked) [Example 322]
84.7%	35 nM	Cc1ccccc1CNC(=O)[C@H]1CCCN1CCc1ccccc1 [Example 270]
92%	29.5 nM	O=C(N[C@H]1c2ccccc2C[C@H]1O)[C@H]1COCCN1CC1CCCC1 [Example 310]
76.5%	27 nM	CC[C@H]1CCN[C@@H]1C(=O)NC1C2CC3CC(C2)CC1C3 (some centres unmarked) [Example 345]
83.8%	26 nM	O=C(NCc1ccccc1Cl)[C@H]1CCCN1CCc1ccccc1 [Example 271]
86.6%	26 nM	CCCN1CCOC[C@@H]1C(=O)NC1CCCCC1 [Example 331]
92.6%	22.4 nM	O=C(N[C@H]1c2ccccc2C[C@H]1O)[C@H]1CCCN1CC1CCCC1 [Example 293]
90.2%	18 nM	O=C(NC1C2CC3CC(C2)CC1C3)[C@H]1CNC[C@H](c2ccccc2)C1 (some centres unmarked) [Example 346]
95.3%	14 nM	CN(Cc1ccccc1Cl)C(=O)[C@H]1COCCN1CC1CCCC1 [Example 312]
100%	12.8 nM	CC(C)CN1CCOC[C@@H]1C(=O)NC1Cc2ccccc2C1 [Example 307]
93.1%	11.5 nM	N#Cc1ccccc1CN1CCC[C@@H]1C(=O)N[C@@H]1CCc2ccccc21 [Example 284]
95.7%	11.4 nM	C[C@@H](NC(=O)[C@H]1CCCN1Cc1ccccc1)c1ccc(Cl)cc1 [Example 296]
90.7%	11 nM	CC(C)[C@H]1CCN[C@@H]1C(=O)NC1C2CC3CC(C2)CC1C3 (some centres unmarked) [Example 344]
97.5%	9.9 nM	O=C(NC1C2CC3CC(C2)CC1C3)[C@H]1NCC[C@@H]1C1CCCC1 (some centres unmarked) [Example 342]
100%	8.52 nM	O=C(NC1Cc2ccccc2C1)[C@H]1CCCN1CC1CCCC1 [Example 294]

inhibition at 0.1 µM	Ki	SMILES
96.1%	6.63 nM	N#Cc1ccc(CN2CCOC[C@@H]2C(=O)N[C@@H]2CCCc3ccccc32)cc1 [Example 315]
98.6%	6.3 nM	Cc1ccc(O[C@@H]2CN[C@H](C(=O)NC3C4CC5CC(C4)CC3C5)C2)cn1 (some centres unmarked) [Example 343]
97.7%	5.71 nM	CC(C)CN1CCOC[C@@H]1C(=O)N[C@@H]1CCc2ccccc21 [Example 308]
100%	5.6 nM	O=C(N[C@@H]1CCc2ccccc21)[C@H]1CCCN1Cc1ccccc1 [Example 283]
100%	5.2 nM	O=C(NC1C2CC3CC(C2)CC1C3)[C@@H]1NCC[C@H]1c1ccccc1 (some centres unmarked) [Example 340]
100%	3.7 nM	N#Cc1ccc(CN2CCC[C@@H]2C(=O)N[C@@H]2CCCc3ccccc32)cc1 [Example 297]
98.7%	3.4 nM	N#Cc1ccccc1CN1CCOC[C@@H]1C(=O)N[C@@H]1CCc2ccccc21 [Example 305]
98.7%	3.39 nM	CC(C)CN1CCC[C@@H]1C(=O)N[C@H](C)c1ccccc1 [Example 287]
96.6%	3.3 nM	Cc1cc(C)cc(O[C@@H]2CN[C@H](C(=O)NC3C4CC5CC(C4)CC3C5)C2)c1 (some centres unmarked) [Example 347]
99.1%	3.2 nM	O=C(NC1CCCCC1)[C@H]1COCCN1Cc1ccccc1 [Example 302]
100%	3.2 nM	N#Cc1ccc(CN2CCC[C@@H]2C(=O)NCC2CCCCC2)cc1 [Example 328]
100%	3 nM	O=C(NC1C2CC3CC(C2)CC1C3)[C@H]1COCCN1CC1CC1 (some centres unmarked) [Example 279]
78.4%	2.6 nM	O=C(NCc1ccc(F)cc1)[C@H]1COCCN1Cc1ccccc1 [Example 274]
100%	2.4 nM	N#Cc1ccc(CN2CCOC[C@@H]2C(=O)NCC2CCCCC2)cc1 [Example 334]
100%	2.34 nM	O=C(NC1CCCCC1)[C@H]1CCCN1Cc1ccccc1 [Example 282]
100%	2.23 nM	O=C(N[C@@H]1CCCc2ccccc21)[C@H]1CCCN1CC1CCCC1 [Example 299]
100%	2.2 nM	CC(C)CN1CCOC[C@@H]1C(=O)NC1CCCCC1 [Example 332]
100%	1.2 nM	CC(C)CN1CCC[C@@H]1C(=O)NC1Cc2ccccc2C1 [Example 289]
100%	1 nM	O=C(NC1C2CC3CC(C2)CC1C3)[C@@H]1C[C@H](Oc2ccc(F)cc2)CN1 (some centres unmarked) [Example 321]
100%	1 nM	O=C(NC1C2CC3CC(C2)CC1C3)[C@@H]1C[C@H](Oc2ccccc2)CN1 (some centres unmarked) [Example 338]
100%	0.7 nM	O=C(NC1C2CC3CC(C2)CC1C3)[C@@H]1C[C@H](Oc2ccccc2F)CN1 (some centres unmarked) [Example 341]
